Data as given in patent US10472420B2, “Immune response modifier conjugates” (3M INNOVATIVE PROPERTIES COMPANY, priority 2006, dated 2019).

melting point [°C] | SMILES
152 to 157 | CCOCc1nc2c(N)nc3cc(OCCCCCCNC(=O)CCS)ccc3c2n1CC(C)(C)NS(C)(=O)=O [IRM10, N-{6-[(4-Amino-2-(ethoxymethyl)-1-{2-methyl-2-[(methylsulfonyl)amino]propyl}-1H-imidazo[4,5-c]quinolin-7-yl)oxy]hexyl}-3-mercaptopropanamide]
203 to 204.6 | CCOCc1nc2c(N)nc3ccccc3c2n1CC(C)(C)NC(=O)CCC(=O)NN [IRM5, N-{2-[4-Amino-2-(ethoxymethyl)-1H-imidazo[4,5-c]quinolin-1-yl]-1,1-dimethylethyl}-4-hydrazino-4-oxobutanamide]
